Assay: Permeation of solutes through the composite membrane, side-by-side diffusion cell
Assay type: physicochemical
Settings: for P(45° C.)/P(20° C.) in 0.0001M KCl: permeability ratio across composite membrane, 45° C. vs 20° C.
Procedure: Permeation of solutes of various molecular sizes through the membrane was determined using a side-by-side diffusion cell. The solution in the receptor cell was pumped to a UV cell with a peristaltic pump. The amount of solute permeated was assayed by a diode array spectrophotometer (HP 8452A). The pH of the medium was adjusted either by addition of sodium hydroxide and hydrochloric acid.

permeability at 45° C. relative to that at 20° C. (composite membrane, in the presence of CaCl2 (3.33×10^−2 mM, FIG. 7), calculated from slopes)	P(45° C.)/P(20° C.) in 0.0001M KCl	permeation across the membrane into water at 25° C. (water, 25° C. compared with 40° C. (FIG. 6))	ratio of the permeability at 40° C. to that at 25° C. (composite membrane, DDI water (FIG. 5))	Molecule	penetration through the membrane (at the studied temperatures)
about 11 fold	11.0	almost negligible permeation	–	Vitamin B12	–
–	2.20	–	about 2.6 times	CC(=O)Nc1ccc(O)cc1 [Acetaminophen]	–

Molecule	permeability at 45° C. relative to that at 20° C. (composite membrane, in the presence of CaCl2 (3.33×10^−2 mM, FIG. 7), calculated from slopes)	P(45° C.)/P(20° C.) in 0.0001M KCl	permeation across the membrane into water at 25° C. (water, 25° C. compared with 40° C. (FIG. 6))	ratio of the permeability at 40° C. to that at 25° C. (composite membrane, DDI water (FIG. 5))	penetration through the membrane (at the studied temperatures)
Chymotrypsin	–	No permeation at both	–	–	could not penetrate through the membrane

Reference: patent publication US6565872B2, “Polymeric system for drug delivery and solute separation” (priority 1999, dated 2003)
